From ChEMBL document CHEMBL4177674, “Cyclotides, a versatile ultrastable micro-protein scaffold for biotechnological applications” (Bioorg Med Chem Lett, 2017)
Bridge positions count the residues as written; N and C are the ends. Peptide text beside a SMILES is read from it.

The compounds below were run against T1, Serine protease 1 (Bos taurus, UniProt P00760) (assay: Inhibition of bovine beta-trypsin incubated for 5 mins using BAPNA as substrate by colorimetric assay).
T1 sequence (P00760 whole entry): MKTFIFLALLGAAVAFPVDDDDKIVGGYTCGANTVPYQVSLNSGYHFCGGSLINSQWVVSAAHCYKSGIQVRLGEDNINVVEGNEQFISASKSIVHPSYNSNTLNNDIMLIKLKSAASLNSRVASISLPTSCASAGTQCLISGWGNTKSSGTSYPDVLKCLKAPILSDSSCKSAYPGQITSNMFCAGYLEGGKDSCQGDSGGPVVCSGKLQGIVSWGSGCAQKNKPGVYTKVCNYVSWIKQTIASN

Ki, 0.02 to 0.03 nM:
CCC(C)[C@@H]1NC(=O)CNC(=O)[C@H](CC(N)=O)NC(=O)[C@H](Cc2ccc(O)cc2)NC(=O)[C@@H]2CSSC[C@@H]3NC(=O)[C@@H]4CCCN4C(=O)[C@H](C(C)CC)NC(=O)[C@H](Cc4ccc(O)cc4)NC(=O)[C@H](C(C)C)NC(=O)[C@@H]4CSSC[C@H](NC(=O)[C@H](CO)NC(=O)[C@H](CSSC[C@H](NC(=O)[C@@H]5CCCN5C1=O)C(=O)N[C@@H](C)C(=O)N[C@@H](CCC(=O)O)C(=O)N[C@@H](CO)C(=O)N4)NC(=O)CNC(=O)[C@H](CC(C)C)NC(=O)[C@H](CC(C)C)NC(=O)[C@H](C)NC(=O)[C@H]([C@@H](C)O)NC(=O)[C@H](C(C)C)NC(=O)[C@H]([C@@H](C)O)NC3=O)C(=O)N[C@@H](CO)C(=O)N[C@@H](CC(N)=O)C(=O)N[C@@H](CCCNC(=N)N)C(=O)N[C@@H](C(C)C)C(=O)N2 (stereo partly drawn)
CC[C@H](C)[C@@H]1NC(=O)[C@H](C)NC(=O)[C@H](CO)NC(=O)[C@H](CO)NC(=O)[C@H]([C@@H](C)CC)NC(=O)[C@@H]2CSSC[C@@H]3NC(=O)[C@H](C(C)C)NC(=O)[C@H](CCCCN)NC(=O)[C@H](CO)NC(=O)[C@H](CCCCN)NC(=O)[C@@H]4CSSC[C@H](NC(=O)[C@H](CO)NC(=O)[C@H](CCC(=O)O)NC(=O)CNC(=O)[C@H](CSSC[C@H](NC(=O)CNC1=O)C(=O)N[C@@H](CO)C(=O)N4)NC(=O)[C@@H]1CCCN1C(=O)[C@H]([C@@H](C)CC)NC(=O)CNC(=O)[C@H](CC(N)=O)NC(=O)[C@H](CCCNC(=N)N)NC(=O)[C@H](Cc1ccc(O)cc1)NC3=O)C(=O)N[C@@H](C(C)C)C(=O)N[C@@H](Cc1c[nH]c3ccccc13)C(=O)N[C@@H]([C@@H](C)CC)C(=O)N1CCC[C@H]1C(=O)N2 (cyclo(AIGCSCKSKVCYRNGIPCGESCVWIPCISS); disulfide 4-18, 6-22, 11-27)
CC[C@H](C)[C@@H]1NC(=O)[C@@H]2CCCN2C(=O)[C@H](Cc2c[nH]c3ccccc23)NC(=O)[C@H]([C@@H](C)O)NC(=O)[C@@H]2CSSC[C@@H]3NC(=O)[C@H]([C@@H](C)O)NC(=O)[C@H](CCC(=O)O)NC(=O)CNC(=O)[C@@H]4CSSC[C@H](NC(=O)CNC(=O)[C@@H]5CCCN5C(=O)[C@H]([C@@H](C)O)NC(=O)[C@H](CC(N)=O)NC(=O)[C@H](CSSC[C@H](NC1=O)C(=O)N[C@@H]([C@@H](C)O)C(=O)N[C@@H](CCCNC(=N)N)C(=O)N[C@@H](CC(=O)O)C(=O)NCC(=O)N[C@@H](CC(C)C)C(=O)N1CCC[C@H]1C(=O)N[C@@H](C(C)C)C(=O)N4)NC(=O)[C@H]([C@@H](C)O)NC(=O)CNC(=O)CNC(=O)[C@H](Cc1ccccc1)NC3=O)C(=O)N[C@@H](CO)C(=O)N2 (cyclo(CFGGTCNTPGCSCTWPICTRDGLPVCGET); disulfide 1-13, 6-18, 11-26)
